Test results published in patent publication US8058243B2, “Method for treating a brain cancer with ifenprodil” (HSC Research and Development Limited Partnership, priority 2006, dated 2011).
Where a name gives a salt, the structure may show the parent alone. Read-outs that look alike come from different tables or passages of the source.

System: murine neural precursor cells (neurosphere cultures)
Assay: HTS of LOPAC library against secondary neurosphere cultures, MTT proliferation assay at 3 μM, day 7 (z score, P value)
Assay type: cell-based, mouse
[1] = primary LOPAC screen, 3 μM, MTT, neurosphere proliferation
[2] = yes/no: significantly inhibited neurosphere proliferation in the primary screen
[3] = LOPAC library screen, 3 μM, MTT, neurosphere cultures
[4] = LOPAC primary screen, neurosphere MTT proliferation, 3 μM, day 7
[5] = yes/no: significantly inhibited neurosphere proliferation (P<0.01) in primary screen
[6] = yes/no: significantly inhibited neurosphere proliferation (P<0.01) in the primary screen
[7] = LOPAC library screen at 3 μM, secondary neurosphere cultures, MTT
[8] = yes = significantly inhibited neurosphere proliferation (P<0.01) in the primary screen
[9] = yes/no: significantly inhibited neurosphere proliferation in primary screen
[10] = LOPAC library screen, 3 μM, MTT, secondary neurosphere cultures, day 7
[11] = LOPAC screen, neurosphere MTT proliferation, 3 μM, day 7

With `C#C[C@]1(O)CC[C@H]2[C@@H]3CCC4=Cc5nc6nc7ccccc7n6cc5C[C@]4(C)[C@H]3CC[C@@]21C` [WIN 62,577] the “Z Score” value was 2.351, the Z score [1] was 2.351 and the Activity [2] was “no”.

With `N[C@@H](Cc1c[nH]c2ccc(O)cc12)C(=O)O` [5-Hydroxy-L-tryptophan] the “Z Score” value [3] was 0.03011, the Z score [4] was 0.030 and the Activity [5] was “no”.

`CCCn1c(=O)c2[nH]c(C3CCCC3)nc2n(CCCOC(=O)c2ccc(S(=O)(=O)F)cc2)c1=O` [FSCPX] was tested, and the “Z Score” value was 0.7825, the Z score [4] was 0.782 and the Activity [5] was “no”.

With `COc1cccc(C(=O)NCCN2CCN(c3ccc(Cl)cc3)CC2)c1` [N-(2-[4-(4-Chlorophenyl)piperazin-1-yl]ethyl)-3-methoxybenzamide] the “Z Score” value [3] was 0.3828, the Z score [4] was 0.383 and the Activity [6] was “no”.

`O=C(O)[C@H]1C[C@H](C(=O)O)N1` (relative stereo) [trans-Azetidine-2,4-dicarboxylic acid] was tested, and the “Z Score” value (168 h, 3 µM) was −0.3491, the Z score (168 h, 3 µM) was −0.349 and the Activity [2] was “no”.

For `COc1ccc2[nH]cc(CCNC(C)=O)c2c1` [Melatonin], the “Z Score” value [7] was −0.2407, the Z score [4] was −0.241 and the Activity [8] was “no”.

`Cl.O=C(O)C1=CCCN(CCON=C(c2ccccc2)c2ccccc2)C1` [NO-711 hydrochloride] was tested, and the “Z Score” value was −0.4618, the Z score [4] was −0.462 and the Activity [8] was “no”.

With `O=c1nc2[nH]c3ccccc3nc-2c(=O)[nH]1` [Alloxazine] the “Z Score” value [7] was −0.4424, the Z score [1] was −0.442 and the Activity [2] was “no”.

`CN(C)CCC(c1ccc(Br)cc1)c1ccccn1.O=C(O)/C=C\C(=O)O` (stereo not drawn) [(B1)-Brompheniramine maleate] was tested, and the “Z Score” value was −3.53.

In the case of `Cc1nc2sccn2c(=O)c1CCN1CCC(=C(c2ccc(F)cc2)c2ccc(F)cc2)CC1` [Ritanserin], the “Z Score” value [7] is reported as −0.6957, the Z score [4] is reported as −0.696 and the Activity [9] is reported as “no”.

`Cl.Cl.c1ccc(CCCN2CCN(CCOC(c3ccccc3)c3ccccc3)CC2)cc1` [GBR-12935 dihydrochloride] was tested, and the “Z Score” value was −11.27, the Z score [4] was −11.274 and the Activity [6] was “yes”.

For `NC(=Nc1ccccc1)NC(=O)c1nc(Cl)c(N)nc1N` [Phenamil methanesulfonate], the “Z Score” value [3] was 1.485, the Z score [4] was 1.485 and the Activity [6] was “no”.

In the case of `CC(C)N(CCC(C(N)=O)(c1ccccc1)c1ccccn1)C(C)C` (stereo not drawn) [Disopyramide], the “Z Score” value [10] is reported as −4.179, the Z score [4] is reported as −4.179 and the Activity [6] is reported as “yes”.

`Cl.Cl.NCCNS(=O)(=O)c1cccc2cnccc12` [H-9 dihydrochloride] was tested, and the “Z Score” value was −0.1899, the Z score [1] was −0.190 and the Activity [2] was “no”.

For `NC(CCCCCP(=O)(O)O)C(=O)O` (stereo not drawn) [(B1)-2-Amino-7-phosphonoheptanoic acid], the “Z Score” value was −1.02.

`CCCCC1(C2CCCC2)Cc2cc(OCC(=O)O)c(Cl)c(Cl)c2C1=O` (stereo in doubt) [R(+)-Butylindazone] was tested, and the “Z Score” value was 0.02924, the Z score [11] was 0.029 and the Activity [5] was “no”.

With `O=C(O)C1CCNCC1` [Isonipecotic acid] the “Z Score” value (168 h, 3 µM) was −0.4569, the Z score (168 h, 3 µM) was −0.457 and the Activity [5] was “no”.

For `CC(C)NC(C)Cc1ccc(I)cc1` (stereo not drawn) [Iofetamine hydrochloride], the “Z Score” value was −0.7588 and the Z score [4] was −0.759.

In the case of `COc1cc2nc(N3CCN(C(=O)C4COc5ccccc5O4)CC3)nc(N)c2cc1OC` (stereo not drawn) [Doxazosin mesylate], the “Z Score” value [10] is reported as −1.861, the Z score [11] is reported as −1.861 and the Activity [5] is reported as “no”.

For `C[N+](C)(C)CCOC(=O)CCC(=O)OCC[N+](C)(C)C` [Succinylcholine chloride], the “Z Score” value was −1.93, the Z score [4] was −1.930 and the Activity [9] was “no”.

In the case of `CCN(CC)C(=O)N[C@H]1C[C@@H]2c3cccc4[nH]cc(c34)C[C@H]2N(C)C1` [R(+)-Terguride], the “Z Score” value [10] is reported as −2.004, the Z score [1] is reported as −2.004 and the Activity [2] is reported as “no”.

In the case of `Cc1cccc(C)c1N=C1NCCCS1` [Xylazine hydrochloride], the “Z Score” value is reported as 0.3755, the Z score [1] is reported as 0.375 and the Activity [2] is reported as “no”.

For L-Methionine sulfoximine, the Activity was “no”, the “Z Score” value was 0.08671 and the Z score was 0.087.

In the case of `C[N+]1(C)CCN(c2ccccc2)CC1.[I-]` [1,1-Dimethyl-4-phenyl-piperazinium iodide], the “Z Score” value is reported as −1.057, the Z score [11] is reported as −1.057 and the Activity [5] is reported as “no”.

For `CN1CCN(C2=Nc3cc(Cl)ccc3Nc3ccccc32)CC1` [Clozapine], the “Z Score” value (168 h, 3 µM) was 0.5473 and the Z score (168 h, 3 µM) was 0.547.

`CCCCCCCCCCCCCCCC(=O)OC(CC(=O)O)C[N+](C)(C)C.[Cl-]` (racemic) [Palmitoyl-DL-Camitine chloride] was tested, and the Z score [4] was 0.200 and the Activity [9] was “no”.

`Fc1ccc(C(OCCCc2c[nH]cn2)c2ccc(F)cc2)cc1` [3-(1H-Imidazol-4-yl)propyl di(p-fluorophenyl)methyl ether] was tested, and the Z score [4] was −0.015 and the Activity [5] was “no”.

With `Nc1ncnc2c1ncn2C1CCCC1` [9-cyclopentyladenine] the “Z Score” value (168 h, 3 µM) was 0.4988, the Z score (168 h, 3 µM) was 0.499 and the Activity [5] was “no”.

With `COc1ccc(NC(=O)c2ccc(-c3ccc(-c4noc(C)n4)cc3C)cc2)cc1N1CCN(C)CC1` [GR 127935 hydrochloride] the “Z Score” value [7] was −1.081, the Z score [4] was −1.081 and the Activity [6] was “no”.

For `O=C(CCCN1CCC2(CC1)C(=O)NCN2c1ccccc1)c1ccc(F)cc1` [Spiperone hydrochloride], the “Z Score” value [7] was −0.5168, the Z score [4] was −0.517 and the Activity [9] was “no”.

`O=C(O)CP(=O)(O)O` [Phosphonoacetic acid] was tested, and the “Z Score” value [7] was −0.8885, the Z score [4] was −0.888 and the Activity [9] was “no”.

For `Cc1nc(N=Nc2ccc(S(=O)(=O)O)cc2S(=O)(=O)O)c(COP(=O)(O)O)c(C=O)c1O` [PPADS], the “Z Score” value was 1.106, the Z score [4] was 1.106 and the Activity [9] was “no”.

`C[C@]12CCC(=O)C=C1CC[C@@H]1[C@@H]2CC[C@]2(C)C(=O)CC[C@@H]12` [4-Androstene-3,17-dione] was tested, and the “Z Score” value was −0.6917, the Z score [1] was −0.692 and the Activity [2] was “no”.

With `CCCCNc1c(C(=O)OCC)c(C)nc2c1cnn2CC` [Tracazolate] the “Z Score” value [7] was −0.3151, the Z score [1] was −0.315 and the Activity [2] was “no”.

With `C[C@@H]1O[C@@H](O[C@H]2C[C@@H](O)[C@]3(CO)[C@H]4[C@H](O)C[C@]5(C)[C@@H](C6=CC(=O)OC6)CC[C@]5(O)[C@@H]4CC[C@]3(O)C2)[C@H](O)[C@H](O)[C@H]1O` [Ouabain] the “Z Score” value [10] was −1.568, the Z score [4] was −1.568 and the Activity [9] was “no”.

For `N=C(N)NOCC[C@H](N)C(=O)O.O=S(=O)(O)O` [L-Canavanine sulfate], the “Z Score” value was −0.9024, the Z score [11] was −0.902 and the Activity [5] was “no”.

With `Br.C=CCN1CCc2cc(O)c(O)cc2C(c2ccccc2)C1` (stereo not drawn) [(B1)-SKF 38393, N-allyl-, hydrobromide] the “Z Score” value was −1.59.

In the case of `Cl.NCCC[C@](N)(C(=O)O)C(F)F` (racemic), the “Z Score” value [7] is reported as −0.4244, the Z score [11] is reported as −0.424 and the Activity [5] is reported as “no”.

`NC(=O)CC[C@H](N)C(=O)O` [L-Glutamine] was tested, and the “Z Score” value (168 h, 3 µM) was 0.8278, the Z score (168 h, 3 µM) was 0.828 and the Activity [5] was “no”.

For `CCSC(N)=Nc1ccc(C(F)(F)F)cc1.Cl` [TFPI hydrochloride], the “Z Score” value [7] was −1.156, the Z score [4] was −1.156 and the Activity [9] was “no”.

CGP 20712A methanesulfonate was tested, and the “Z Score” value [3] was 0.6491, the Z score [11] was 0.649 and the Activity [5] was “no”.

For `CO/N=C(\C(=O)N[C@@H]1C(=O)N2C(C(=O)O)=C(COC(C)=O)CS[C@H]12)c1csc(N)n1` [Cefotaxime sodium], the “Z Score” value [7] was −1.096, the Z score [4] was −1.096 and the Activity [6] was “no”.

In the case of `C=C(C)[C@H]1Cc2c(ccc3c2O[C@@H]2COc4cc(OC)c(OC)cc4[C@@H]2C3=O)O1` [Rotenone], the “Z Score” value is reported as −11.27, the Z score [4] is reported as −11.274 and the Activity [8] is reported as “yes”.

`N[C@H]1CONC1=O` [L-Cycloserine] was tested, and the “Z Score” value [7] was −0.1552, the Z score [1] was −0.155 and the Activity [2] was “no”.

For `CNCCNS(=O)(=O)c1cccc2cnccc12.Cl.Cl` [H-8 dihydrochloride], the “Z Score” value was −1.583, the Z score [4] was −1.583 and the Activity [8] was “no”.

For `Cn1c(=O)c2[nH]c(C3CCCC3)nc2n(C)c1=O` [8-Cyclopentyl-1,3-dimethylxanthine], the “Z Score” value (168 h, 3 µM) was −0.1248, the Z score (168 h, 3 µM) was −0.125 and the Activity [5] was “no”.

In the case of `CC(=O)NCCc1c[nH]c2ccc(O)cc12` [N-Acetyl-5-hydroxytryptamine], the “Z Score” value [7] is reported as −1.06, the Z score [1] is reported as −1.060 and the Activity [2] is reported as “no”.

In the case of `Nc1nc(N)c2nc(-c3ccccc3)c(N)nc2n1` [Triamterene], the “Z Score” value [10] is reported as −4.642, the Z score [4] is reported as −4.642 and the Activity [8] is reported as “yes”.

With `NC(=O)N1c2ccccc2C=Cc2ccccc21` [Carbamazepine] the “Z Score” value [3] was 1.114, the Z score [11] was 1.114 and the Activity [5] was “no”.

`Oc1ccc2c3c1O[C@H]1c4oc5ccccc5c4C[C@@]4(O)[C@@H](C2)N(CC2CC2)CC[C@]314` [Naltriben methanesulfonate] was tested, and the “Z Score” value was −0.3606, the Z score [4] was −0.361 and the Activity [9] was “no”.

With `CCN(c1nc(N)c(C(=O)N=C(N)N)nc1Cl)C(C)C` [5-(N-Ethyl-N-isopropyl)amiloride] the “Z Score” value was −0.2886, the Z score [1] was −0.289 and the Activity [2] was “no”.

In the case of `COc1ccccc1N1CCN(CCN2C(=O)CC3(CCCC3)CC2=O)CC1` [BMY 7378 dihydrochloride], the “Z Score” value [7] is reported as −0.6588, the Z score [11] is reported as −0.659 and the Activity [5] is reported as “no”.

In the case of `Br.Cc1o[nH]c(=O)c1CC(N)C(=O)O` (stereo not drawn) [(B1)-AMPA hydrobromide], the “Z Score” value is reported as −0.4272.

With `C[N+](C)(C)CCCCCC[N+](C)(C)C` [Hexamethonium bromide] the “Z Score” value was −0.8199, the Z score [4] was −0.820 and the Activity [6] was “no”.
